Experimental data: patent publication US9656971B2, “COMT inhibitors” (Hoffmann-La Roche Inc., priority 2012, dated 2017)
Structures can show the parent of a compound that is named as a salt. Where two headings read alike, the source gives them in different places.

Columns and labels:
[1] = biological target: T1, Rec. human COMT (Homo sapiens, UniProt P21964); test: COMT-Fluorescence Assay; assay type: biochemical; conditions: rec. human COMT 25 nM, 4-Nitrocatechol-Alexa488 200 nM, SAM 500 nM
T1 sequence (P21964 1-271): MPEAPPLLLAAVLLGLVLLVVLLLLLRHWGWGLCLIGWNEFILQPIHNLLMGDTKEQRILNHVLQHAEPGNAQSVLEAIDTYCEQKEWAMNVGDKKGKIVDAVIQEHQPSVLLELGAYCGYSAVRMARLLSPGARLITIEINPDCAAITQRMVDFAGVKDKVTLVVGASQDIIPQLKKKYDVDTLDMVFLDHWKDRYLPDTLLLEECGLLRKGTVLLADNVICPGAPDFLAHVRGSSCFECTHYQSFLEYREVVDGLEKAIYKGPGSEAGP
Description: This intramolecular interaction is disturbed if the 4-Nitrocatechol is methylated. […] This increase of fluorescence intensity can be followed in a kinetic measurement. The slope in the linear range of the kinetic is calculated. An inhibitor compound decreases the slope.
Signal [rfu/min]=(rfu(end-point)−rfu(startpoint))/incubation_time_#2

[2] = test system: rat anhedonia model; conditions: cited from earlier work
[3] = test system: patients with major depressive disorder (MDD); conditions: open clinical trial, 21 patients with MDD, 8 weeks, 400 mg b.i.d.; cited from earlier work
[4] = in vivo; cited from earlier work
[5] = COMT-fluorescence assay, read-out: IC50

Structure (SMILES)	IC50 [1, 5] [nM]	further results
CN(C)CCCc1ccccc1-c1cc(O)c2nc[nH]c(=O)c2c1 [Example 243, 6-(2-(3-(Dimethylamino)propyl)phenyl)-8-hydroxyquinazolin-4(3H)-one]	130	
O=c1[nH]cnc2c(O)c(F)c(Br)c(-c3ccc(F)cc3)c12 [Example 244, 6-Bromo-7-fluoro-5-(4-fluoro-phenyl)-8-hydroxy-3H-quinazolin-4-one]	150	
O=c1[nH]cnc2c(O)c(Cl)c(-c3ccc(F)cc3)cc12 [Example 245, 7-Chloro-6-(4-fluorophenyl)-8-hydroxyquinazolin-4(3H)-one]	730	
O=c1[nH]cnc2c(O)c(Cl)c(Br)cc12 [Example 246, 6-Bromo-7-chloro-8-hydroxyquinazolin-4(3H)-one]	1590	
CN(C)CCc1cccc(-c2cc(O)c3nc[nH]c(=O)c3c2)c1 [Example 247, 6-(3-(2-(Dimethylamino)ethyl)phenyl)-8-hydroxyquinazolin-4(3H)-one]		IC50 ([1]; IC50, COMT-fluorescence assay): 50 nM
O=c1[nH]cnc2c(O)cc(-c3ccccc3CCCCN3CCCC3)cc12 [Example 248, 8-Hydroxy-6-(2-(4-(pyrrolidin-1-yl)butyl)phenyl)quinazolin-4(3H)-one]	100	
CCCS(=O)(=O)c1ccccc1-c1cc(O)c2nc[nH]c(=O)c2c1 [Example 249, 8-Hydroxy-6-(2-(propylsulfonyl)phenyl)quinazolin-4(3H)-one]	3230	
CN(C)S(=O)(=O)c1ccccc1-c1cc(O)c2nc[nH]c(=O)c2c1 [Example 250, 2-(8-Hydroxy-4-oxo-3,4-dihydro-quinazolin-6-yl)-N,N-dimethyl-benzenesulfonamide]	1140	
O=c1[nH]cnc2c(O)cc(-c3ccccc3S(=O)(=O)N3CCCCC3)cc12 [Example 251, 8-Hydroxy-6-[2-(piperidine-1-sulfonyl)-phenyl]-3H-quinazolin-4-one]	740	
O=c1[nH]cnc2c(O)cc(-c3ccc(F)cc3)c([N+](=O)[O-])c12 [Example 252, 6-(4-Fluoro-phenyl)-8-hydroxy-5-nitro-3H-quinazolin-4-one]	30	
Nc1c(-c2ccc(F)cc2)cc(O)c2nc[nH]c(=O)c12 [Example 253, 5-Amino-6-(4-fluorophenyl)-8-hydroxyquinazolin-4(3H)-one hydrobromide]	100	
O=C(Nc1c(-c2ccc(F)cc2)cc(O)c2nc[nH]c(=O)c12)c1ccccc1 [Example 254, N-(6-(4-Fluorophenyl)-8-hydroxy-4-oxo-3,4-dihydroquinazolin-5-yl)benzamide]	1400	
O=c1[nH]cnc2c(O)cc(-c3ccccc3CO)c(Cl)c12 [Example 255, 5-Chloro-8-hydroxy-6-(2-hydroxymethyl-phenyl)-3H-quinazolin-4-one]	120	
CN1CCC(CCOCc2ccccc2-c2cc(O)c3nc[nH]c(=O)c3c2)CC1 [Example 256, 8-Hydroxy-6-(2-((2-(1-methylpiperidin-4-yl)ethoxy)methyl)phenyl)quinazolin-4(3H)-one]	36	
Cc1ccc(C(=O)c2cc(O)c(O)c([N+](=O)[O-])c2)cc1 [Tolcapone, tolcapone]		anti-depressant activity [2]: anti-depressant activity; anti-depressant activity [3]: anti-depressant activity; brain/plasma ratio [4]: ~0.01
